Results as given in PubChem BioAssay AID1919009 (Molecular Pharmacology Branch, DTP, NCI, 2023).

Tested on: K24384-001-R-PDC complex spheroid growth
Test: Anticancer human tumor K24384-001-R-PDC patient-derived pancreatic adenocarcinoma cell line growth inhibition [AhR]
Conditions: for IC50: curve of first compound; for viability, T/C: stronger effect = lower value
Text: Multicellular complex tumor spheroid response to aryl hydrocarbon receptor antagonists in combination with a variety of drugs and investigational agents in selected tumor cell lines
The current study was undertaken to assess response to aryl hydrocarbon receptor antagonists in combination with standard-of-care drugs and investigational agents in solid tumor complex spheroid models. Complex spheroids include a stromal component modeled by human endothelial cells (HUVEC) and fibroblasts modeled by human mesenchymal stem cells (MSCs). The concentration ranges selected for each drug and investigational agent were based upon clinically achievable concentrations if the clinical Cmax of the agent was known.
Compounds. The drugs and investigational agents: BAY 2416964 (NSC825713), GNF351 (NSC835774), CH-223191 (NSC835775), CPI-455 (NSC825282), aza-TdCyd (NSC777586), decitabine (NSC127716), belinostat (NSC758774), entinostat (NSC756642), pevonedistat (NSC761192), tazemetostat (NSC777109), talazoparib (NSC765396), olaparib (NSC753686), selinexor (NSC780203), nedisertib (M3814, NSC802822), bortezomib (NSC756655), venetoclax (NSC766270), doxorubicin (NSC123127), elimusertib (BAY189344, NSC800525), ceralasertib (AZD6738, NSC777638), TAK-243 (NSC785004), alisertib (NSC759677), etoposide (NSC141540), topotecan (NSC609699), eribulin (NSC707389), gemcitabine (NSC613327), carboplatin (NSC241240), cisplatin (NSC119875), and SN-38 (NSC673596) were obtained from the National Cancer Institute (NCI) Developmental Therapeutics Program Chemical Repository (32). The FDA-approved anticancer drug set is available from the Developmental Therapeutics Program at https://dtp.cancer.gov/organization/dscb/obtaining/available plates.htm. […] The stock solutions were prepared in dimethyl sulfoxide (DMSO, Sigma-Aldrich, St. Louis, MO, cat. D2650), except for the platinum compounds which were prepared in saline (Quality Biological, Gaithersburg, MD, cat. 114-055-101), at 800-fold the tested concentration and stored at -70 degrees C prior to their use. All drugs and investigational agents were tested over a range starting from a high concentration at or near the clinical Cmax and decreasing in half-log increments. If the clinical Cmax for an agent had not been determined, the highest concentration tested was 10 microM (Table 1).
Cell Culture. All cells were maintained in an incubator at 37 degrees C and 5% CO2 with 95% humidity. The PDC lines were cultured according to standard operating procedures established by the NCI PDMR (https://pdmr.cancer.gov). Briefly, all PDCs were thawed and cultured in Matrigel-coated flasks prepared with a working solution of 1X Ham's F-12 nutrient mix, without supplementation (Invitrogen, Waltham, MA, cat. 11765054), 100 U/mL penicillin-streptomycin (Invitrogen, cat. 15140122), and 2.5% Matrigel (Corning Inc., Corning, NY, cat. 354248) for the first three passages. All PDCs were cultured in complete DMEM/F-12 media containing advanced DMEM/F-12 (Invitrogen, cat. 12634028), 4.9% defined fetal bovine serum, heat inactivated (HyClone Laboratories Inc., Logan, UT, cat. SH30070.03HI), 389 ng/mL hydrocortisone (Sigma-Aldrich, cat. H4001), 9.7 ng/mL human EGF recombinant protein (Invitrogen, cat. PHG0313), 23.4 microg/mL adenine (Sigma-Aldrich, cat. A2786), 97.3 U/mL penicillin-streptomycin (Invitrogen, cat. 15140122), 1.9 mM L-glutamine (Invitrogen, cat. 25030081), and 9.7 microM Y-27632 dihydrochloride (Tocris Bioscience, Bristol, United Kingdom, cat. 1254). The PDCs were cultured in complete DMEM/F12 media without 10 microM Y-27632 dihydrochloride for at least two passages prior to the screen. The established cell lines NCI-H1341 and […] were cultured in DMEM/F-12, HEPES (Invitrogen, cat. 11330032), 5% defined fetal bovine serum (HyClone Laboratories Inc., cat. SH30070.03), ITS premix universal culture supplement [insulin (5 microg/mL), transferrin (5 microg/mL), and selenious acid (5 ng/mL)] […]

[1] = second compound 0.1 µM, first compound 0.00316 µM
[2] = second compound 0.1 µM, first compound 0.01 µM
[3] = second compound 0.1 µM, first compound 0.0316 µM
[4] = second compound 0.1 µM, first compound 0.1 µM
[5] = second compound 0.316 µM, first compound 0.00316 µM
[6] = second compound 0.316 µM, first compound 0.01 µM
[7] = second compound 0.316 µM, first compound 0.0316 µM
[8] = second compound 0.316 µM, first compound 0.1 µM
[9] = second compound 1 µM, first compound 0.00316 µM
[10] = second compound 1 µM, first compound 0.01 µM
[11] = second compound 1 µM, first compound 0.0316 µM
[12] = second compound 1 µM, first compound 0.1 µM
[13] = second compound 3.16 µM, first compound 0.00316 µM
[14] = second compound 3.16 µM, first compound 0.01 µM
[15] = second compound 3.16 µM, first compound 0.0316 µM
[16] = second compound 3.16 µM, first compound 0.1 µM
[17] = second compound 10 µM, first compound 0.00316 µM
[18] = second compound 10 µM, first compound 0.01 µM
[19] = second compound 10 µM, first compound 0.0316 µM
[20] = second compound 10 µM, first compound 0.1 µM
[21] = second compound 0.1 µM, first compound 0.316 µM
[22] = second compound 0.1 µM, first compound 1 µM
[23] = second compound 0.1 µM, first compound 3.16 µM
[24] = second compound 0.1 µM, first compound 10 µM
[25] = second compound 0.316 µM, first compound 0.316 µM
[26] = second compound 0.316 µM, first compound 1 µM
[27] = second compound 0.316 µM, first compound 3.16 µM
[28] = second compound 0.316 µM, first compound 10 µM
[29] = second compound 1 µM, first compound 0.316 µM
[30] = second compound 1 µM, first compound 1 µM
[31] = second compound 1 µM, first compound 3.16 µM
[32] = second compound 1 µM, first compound 10 µM
[33] = second compound 3.16 µM, first compound 0.316 µM
[34] = second compound 3.16 µM, first compound 1 µM
[35] = second compound 3.16 µM, first compound 3.16 µM
[36] = second compound 3.16 µM, first compound 10 µM
[37] = second compound 10 µM, first compound 0.316 µM
[38] = second compound 10 µM, first compound 1 µM
[39] = second compound 10 µM, first compound 3.16 µM
[40] = second compound 10 µM, first compound 10 µM
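Wherever viability, T/C is given: percent of DMSO vehicle-treated spheroid viability set as 100%.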

Compound: CC[C@@]1(O)C(=O)OCc2c1cc1n(c2=O)Cc2cc3c(CN(C)C)c(O)ccc3nc2-1 + CC(CO)NC(=O)c1cc(-c2ccc(Cl)cc2)nn(-c2cnn(C)c2)c1=O
- IC50 (second compound 0.1 µM): 76.3 nM
- IC50 (second compound 0.316 µM): 47.9 nM
- IC50 (second compound 1 µM): 31.7 nM
- IC50 (second compound 3.16 µM): 42 nM
- IC50 (second compound 10 µM): > 100 nM
- viability, T/C (second compound 0.1 µM, first compound 0.000316 µM): 103%
- viability, T/C (second compound 0.1 µM, first compound 0.001 µM): 101%
- viability, T/C [1]: 100%
- viability, T/C [2]: 87.7%
- viability, T/C [3]: 64%
- viability, T/C [4]: 45.7%
- viability, T/C (second compound 0.316 µM, first compound 0.000316 µM): 93.4%
- viability, T/C (second compound 0.316 µM, first compound 0.001 µM): 111%
- viability, T/C [5]: 99%
- viability, T/C [6]: 84.2%
- viability, T/C [7]: 54.7%
- viability, T/C [8]: 42.2%
- viability, T/C (second compound 1 µM, first compound 0.000316 µM): 94.2%
- viability, T/C (second compound 1 µM, first compound 0.001 µM): 120%
- viability, T/C [9]: 104%
- viability, T/C [10]: 71.2%
- viability, T/C [11]: 57.3%
- viability, T/C [12]: 39.8%
- viability, T/C (second compound 3.16 µM, first compound 0.000316 µM): 114%
- viability, T/C (second compound 3.16 µM, first compound 0.001 µM): 103%
- viability, T/C [13]: 90.9%
- viability, T/C [14]: 71.8%
- viability, T/C [15]: 53.5%
- viability, T/C [16]: 39.1%
- viability, T/C (second compound 10 µM, first compound 0.000316 µM): 87.6%
- viability, T/C (second compound 10 µM, first compound 0.001 µM): 81.9%
- viability, T/C [17]: 100%
- viability, T/C [18]: 67.3%
- viability, T/C [19]: 52%
- viability, T/C [20]: 49.8%

Compound: COc1cc(C2c3cc4c(cc3C(OC3OC5COC(C)OC5C(O)C3O)C3COC(=O)C23)OCO4)cc(OC)c1O (stereo not given) + CC(CO)NC(=O)c1cc(-c2ccc(Cl)cc2)nn(-c2cnn(C)c2)c1=O
- IC50 (second compound 0.1 µM): 1710 nM
- IC50 (second compound 0.316 µM): 921 nM
- IC50 (second compound 1 µM): 1170 nM
- IC50 (second compound 3.16 µM): 764 nM
- IC50 (second compound 10 µM): 611 nM
- viability, T/C [3]: 96.8%
- viability, T/C [4]: 102%
- viability, T/C [21]: 75.9%
- viability, T/C [22]: 60.8%
- viability, T/C [23]: 39.8%
- viability, T/C [24]: 33.5%
- viability, T/C [7]: 89.5%
- viability, T/C [8]: 93.4%
- viability, T/C [25]: 78.1%
- viability, T/C [26]: 48.4%
- viability, T/C [27]: 30%
- viability, T/C [28]: 28.5%
- viability, T/C [11]: 95.9%
- viability, T/C [12]: 96.4%
- viability, T/C [29]: 78.1%
- viability, T/C [30]: 52.7%
- viability, T/C [31]: 36%
- viability, T/C [32]: 30.8%
- viability, T/C [15]: 74.6%
- viability, T/C [16]: 82.4%
- viability, T/C [33]: 80.4%
- viability, T/C [34]: 41.2%
- viability, T/C [35]: 33.4%
- viability, T/C [36]: 29.6%
- viability, T/C [19]: 70.8%
- viability, T/C [20]: 72.9%
- viability, T/C [37]: 57.2%
- viability, T/C [38]: 44.7%
- viability, T/C [39]: 34.1%
- viability, T/C [40]: 33.7%

Compound: COc1cccc2c1C(=O)c1c(O)c3c(c(O)c1C2=O)CC(O)(C(=O)CO)CC3OC1CC(N)C(O)C(C)O1 (stereo not given) + CC(CO)NC(=O)c1cc(-c2ccc(Cl)cc2)nn(-c2cnn(C)c2)c1=O
- IC50 (second compound 0.1 µM): 78 nM
- IC50 (second compound 0.316 µM): 83.2 nM
- IC50 (second compound 1 µM): 71.2 nM
- IC50 (second compound 3.16 µM): 67.7 nM
- IC50 (second compound 10 µM): 52.4 nM
- viability, T/C [3]: 60.8%
- viability, T/C [4]: 45.7%
- viability, T/C [21]: 26.5%
- viability, T/C [22]: 8.5%
- viability, T/C [23]: 2.41%
- viability, T/C [24]: 9.56%
- viability, T/C [7]: 62%
- viability, T/C [8]: 46.9%
- viability, T/C [25]: 22.6%
- viability, T/C [26]: 5.23%
- viability, T/C [27]: 3.01%
- viability, T/C [28]: 8.52%
- viability, T/C [11]: 64.4%
- viability, T/C [12]: 43%
- viability, T/C [29]: 22.3%
- viability, T/C [30]: 5.55%
- viability, T/C [31]: 2.67%
- viability, T/C [32]: 9.64%
- viability, T/C [15]: 58.1%
- viability, T/C [16]: 44.5%
- viability, T/C [33]: 24.4%
- viability, T/C [34]: 4.46%
- viability, T/C [35]: 3.77%
- viability, T/C [36]: 8.98%
- viability, T/C [19]: 52.8%
- viability, T/C [20]: 46.4%
- viability, T/C [37]: 17.9%
- viability, T/C [38]: 2.07%
- viability, T/C [39]: 3.16%
- viability, T/C [40]: 10.2%

Compound: Nc1ncn(C2CC(O)C(CO)O2)c(=O)n1 (stereo not given) + CC(CO)NC(=O)c1cc(-c2ccc(Cl)cc2)nn(-c2cnn(C)c2)c1=O
- IC50 (second compound 0.1 µM): > 1000 nM
- IC50 (second compound 0.316 µM): > 1000 nM
- IC50 (second compound 1 µM): > 1000 nM
- IC50 (second compound 3.16 µM): > 1000 nM
- IC50 (second compound 10 µM): > 1000 nM
- viability, T/C [1]: 110%
- viability, T/C [2]: 116%
- viability, T/C [3]: 109%
- viability, T/C [4]: 65.8%
- viability, T/C [21]: 87.7%
- viability, T/C [22]: 67.5%
- viability, T/C [5]: 105%
- viability, T/C [6]: 111%
- viability, T/C [7]: 109%
- viability, T/C [8]: 76.2%
- viability, T/C [25]: 69.9%
- viability, T/C [26]: 63.8%
- viability, T/C [9]: 98.2%
- viability, T/C [10]: 93.4%
- viability, T/C [11]: 112%
- viability, T/C [12]: 95.8%
- viability, T/C [29]: 75.4%
- viability, T/C [30]: 62.8%
- viability, T/C [13]: 74.3%
- viability, T/C [14]: 102%
- viability, T/C [15]: 81.3%
- viability, T/C [16]: 67.9%
- viability, T/C [33]: 59.2%
- viability, T/C [34]: 57.3%
- viability, T/C [17]: 80.4%
- viability, T/C [18]: 83.1%
- viability, T/C [19]: 79.3%
- viability, T/C [20]: 67.1%
- viability, T/C [37]: 58.2%
- viability, T/C [38]: 63.2%
